Measured values from PubChem BioAssay (NCI).
“And” between values parts separate entries of the source, which are not always exact repeats. Equal values may be shown once.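 All cell lines were grown in 96-well plates and treated with compound for 48 hours. GI50 = concentration required for 50% inhibition of growth. Definition used: TGI = concentration required for complete inhibition of growth.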 Where a SMILES comes first, the peptide text is derived from it. [ ]: non-standard residue; d: D form. NMeY = CN[C@@H](Cc1ccc(O)cc1)C(=O)O; dNMeF = CN[C@H](Cc1ccccc1)C(=O)O; Sar = CNCC(=O)O

Assays:
Assay in all cases: inhibition of tumour cell growth, NCI panel, 48 h
[1] = test system: OVCAR-4 ovarian
[2] = test system: A498 renal
[3] = test system: SF-295 CNS
[4] = test system: SF-268 CNS
[5] = test system: KM12 colon
[6] = test system: NCI-H23 lung
[7] = test system: BT-549 breast
[8] = test system: HOP-92 NSCLC
[9] = test system: A549 NSCLC
[10] = test system: K-562 leukemia

Structure (SMILES) | GI50 [1] [µM] | TGI [1] | GI50 [2] [µM] | TGI [2] | GI50 [3] [µM] | TGI [3] | GI50 [4] | TGI [4] | GI50 [5] [µM] | TGI [5] | GI50 [6] | TGI [6] | GI50 [7] [µM] | TGI [7] [µM] | GI50 [8] [µM] | TGI [8] | GI50 [9] [µM] | TGI [9] [µM] | GI50 [10] [µM] | TGI [10] [µM]
CC1(C)N=C(N)N=C(N)N1c1cccc(CCCCc2ccccc2)c1 | 0.433 | 18.8 µM | 1.75 | 15.9 µM | 0.229 | 5.79 µM | 0.0735 µM | 15 µM | 0.212 | 1.86 µM | 0.402 µM | 14.1 µM | 0.901 | 3.99 | 0.326 | 4.44 µM | 0.0382 | 1.35 | 0.0688 | 13.6
Nc1ncnc2c(C3OC(CO)C(O)C3O)[nH]nc12 (centres undefined) | 0.116 | 3.51 µM and 2.3 µM | 0.203 | 3.98 µM and 4.78 µM | 0.231 | 1.1 µM and 10.1 µM | 0.204 µM and 0.452 µM | 14 µM and 35.9 µM | 0.076 | 8.13 µM and 14.3 µM | 0.659 µM | 10.5 µM and 16.4 µM | 0.113 | 3.38 | 0.202 | – | – | 9.43 | 0.0459 | 2.03
CN(C)C(=O)c1cc2cnc(Nc3ccc(-c4csc5c(=O)cc(N6CCNCC6)oc45)cc3)nc2n1C1CCCC1 | 1.34 | 5.73 µM | 1.24 | 3.01 µM | 2.1 | 10.7 µM | 0.638 µM | 4.09 µM | 0.345 | 1.58 µM | 0.995 µM | 2.93 µM | 1.35 | 3.15 | 0.517 | 16.5 µM | 1.16 | 3.81 | 0.456 | 4.2
O=C(O)c1ccc(NCc2nc3cc4ccccc4cc3[nH]2)cc1 | – | > 100 µM | – | > 100 µM | – | > 100 µM | – | > 100 µM | – | > 100 µM | – | > 100 µM | – | > 100 | – | > 100 µM | – | > 100 | – | > 100
N#Cc1cccc(/C=C(/C(=O)c2ccccc2)c2ccccc2)c1 | 6.35 | 20.3 µM | 4.08 | 17.2 µM | 4.23 | 17.1 µM | 4.3 µM | 17.2 µM | 3.31 | 11.6 µM | 3.52 µM | 17.1 µM | 4.16 | 15.1 | 2.6 | – | 10.8 | 47.6 | 3.52 | 23.6
C/C(=N\NC(=O)c1ccccc1O)c1cccc(/C(C)=N/NC(=O)c2ccccc2O)n1 | 15.9 | > 100 µM | 2.42 | > 100 µM and 16.7 µM | 0.33 | 59.1 µM and > 36.1 µM | 0.28 µM | 56.5 µM and > 100 µM | 0.456 | > 100 µM | 16 µM and 1.73 µM | 63.8 µM and > 100 µM | 0.441 | > 100 | 0.908 | 67.3 µM and 36.8 µM | > 70.8 | > 100 | – | > 100
S=C=NCc1ccccc1 | – | 13.8 µM | – | 14 µM | – | 19.4 µM | – | 13.5 µM | – | 15.8 µM | – | 15.2 µM | – | 5.12 | – | 17 µM | – | 17.9 | – | > 19.9
Cc1ccc(N=Nc2c(N)nn(-c3ccccc3)c2N)cc1 | > 40.7 | > 100 µM | 1.95 | > 28.7 µM | 1.83 | > 57.1 µM | 4.7 µM | > 100 µM | 0.626 | > 100 µM | 2.29 µM | – | 0.737 | > 100 | 3.44 | 9.05 µM | 2.13 | > 100 | 0.256 | –
O=C(O)C[O][Sb][O]CC(=O)O | > 100 | > 100 µM | > 100 | > 100 µM | > 100 | > 100 µM | > 100 µM | > 100 µM | > 100 | > 100 µM | > 100 µM | > 100 µM | > 100 | > 100 | > 100 | > 100 µM | > 100 | > 100 | > 100 | > 100
CC[C@H](C)[C@@H]1NC(=O)[C@H](Cc2ccc(O)cc2)N(C)C(=O)[C@H](Cc2ccccc2)NC(=O)CN(C)C(=O)[C@@H]2CCCN2C(=O)[C@@H](Cc2ccccc2)N(C)C(=O)[C@H](CC(C)C)NC1=O (cyclo(F[NMeY]IL[dNMeF]P[Sar])) | 0.306 | 3.99 µM | 0.695 | 6.11 µM | 0.428 | 3.5 µM | 0.217 µM | 6.94 µM | 0.271 | 5.48 µM | 0.197 µM | 5.95 µM | 0.407 | 4.51 | 0.198 | 4.83 µM | 0.301 | 4.29 | 0.262 | 31.4
C/C1=C\C/C=C(\C)[C@H]2CC(CC/C(C)=C/CC1)[C@@](C)(CO)O2 | > 100 | > 100 µM | 54.1 | > 100 µM | 59.3 | > 100 µM | 80.6 µM | > 100 µM | 62.7 | > 100 µM | > 100 µM | > 100 µM | > 100 | > 100 | 36.3 | > 100 µM | > 100 | > 100 | 28.4 | > 100
CCOC(=O)Cn1c(C)c(/C=N/NC(=O)c2cc3c(ccc4ccccc43)o2)c2ccccc21 | 1.36 | 9.27 µM | 0.134 | 1.04 µM | 0.323 | 1.65 µM | 1.03 µM | – | 0.306 | 1.52 µM | 0.669 µM | 6.91 µM | 0.853 | 5.13 | 0.354 | 4.94 µM | 0.627 | 5.85 | 0.342 | > 100
CO[C@H]1C[C@@H]2CC[C@@H](C)[C@@](O)(O2)C(=O)C(=O)N2CCCC[C@H]2C(=O)O[C@H]([C@H](C)C[C@@H]2CC[C@@H](OP(C)(C)=O)[C@H](OC)C2)CC(=O)[C@H](C)/C=C(\C)[C@@H](O)[C@@H](OC)C(=O)[C@H](C)C[C@H](C)/C=C/C=C/C=C/1C | 0.698 | 21.3 µM | < 0.01 | 15.5 µM | < 0.01 | 15.5 µM | 10.9 µM | 23.6 µM | 11.1 | 25.3 µM | 11.1 µM | 29.1 µM | < 0.0131 | 18.6 | 0.106 | 17.2 µM | < 0.01 | 20.7 | 11.7 | > 69.4
O=C1c2ccccc2-c2n[nH]c3cccc1c23 | 20.2 | > 100 µM | 4.95 | 35.4 µM and 52.4 µM | – | 86.3 µM and > 100 µM | 12 µM | > 100 µM | 3.1 | 72 µM and > 100 µM | – | 58.1 µM and > 100 µM | 19.3 | > 100 | 23.7 | > 100 µM | – | > 100 | 15.6 | > 100
COc1ccc(-c2cc(-c3cn[nH]c3-c3ccccn3)ccn2)cc1 | > 25 | > 25 µM | > 25 | > 25 µM | > 25 | > 25 µM | > 25 µM | > 25 µM | > 25 | > 25 µM | > 25 µM | > 25 µM | > 25 | > 25 | > 25 | > 25 µM | > 25 | > 25 | 14 | > 25
CC1(O)CC2(O)C=CC3=C(C(=O)c4cccc(O)c4C3=O)C2(O)C(=O)C1O (centres undefined) | – | 2.86 µM | – | 14.9 µM | – | 26.7 µM | – | 17.1 µM | – | 17.8 µM | – | 10.7 µM | – | 2.58 | – | 2.19 µM | – | 25.3 | – | 10.4
CCN(CC)CCCOc1cc(O)c2c(=O)cc(-c3ccccc3)oc2c1 | 5.94 | 25.1 µM | 10.2 | 22.4 µM | 11.9 | 28.1 µM | 10.1 µM | 22.9 µM | 11.7 | 33.3 µM | 11.4 µM | 23.4 µM | 13.3 | 26.6 | 3.08 | 16.7 µM | 5.53 | 22.5 | 1.48 | 3.67
O=C(NNc1ccccc1)OCc1ccccc1 | 18.6 | > 100 µM | 13.3 | > 100 µM | 2.81 | 28.2 µM | 9.27 µM | > 100 µM | 3.92 | > 100 µM | 69.5 µM | > 100 µM | 16.6 | 85.5 | 14.7 | > 100 µM | 9.18 | > 100 | 1.94 | > 100
CCOC(=O)c1ccc(Nc2sc(C(=O)c3cccc([N+](=O)[O-])c3)c(N)c2C#N)cc1 | 0.612 | 57.1 µM | 0.0827 | 5.04 µM | 0.0228 | 0.102 µM | 0.198 µM | 21 µM | 0.0678 | 6.43 µM | 0.425 µM | 22.6 µM | 0.0568 | 39.4 | 0.109 | 28.1 µM | 0.23 | – | 0.0375 | 6.53
COc1ccc2c(c1)sc1nc(-c3ccccc3)c(-c3ccc(O)c(OC)c3)n12 | 39.1 | > 100 µM | 28.3 | > 100 µM | 8 | > 100 µM | 28.8 µM | > 100 µM | 4.81 | > 100 µM | 95.5 µM | > 100 µM | 17.5 | > 100 | 28 | > 100 µM | 9.91 | > 100 | 4.53 | > 100
Nc1nc(N)c2c(ccc3nccc32)[nH]1 | 21.5 | 66.6 µM | 18.3 | 98.3 µM | 1.95 | > 91.3 µM | 2.11 µM | 56.2 µM | 5.05 | 27.1 µM | 6.46 µM | > 100 µM | 3.06 | 24.1 | 4.18 | 30.6 µM | 0.755 | > 100 | 0.319 | > 100
